This is an account of results in publication PMC6976569, “Structural basis of subtype-selective competitive antagonism for GluN2C/2D-containing NMDA receptors” (Nature Communications, 2020).

Format in all cases: cell-based
Assay [1] deals with T1, GluN1-4a/GluN2B NMDARs (Rattus norvegicus, UniProt P35439+Q00960).
T1 construct: expressed in transfected cells; host or cells: Xenopus laevis oocytes injected with cRNA
Description: TEVC electrophysiology on Xenopus laevis oocytes expressing GluN1-4a/GluN2B. An excerpt: (§1) The chemical definition of UBP791 used in this study is a cis-racemic mixture of (2S,3R)- and (2R,3S)-isomers.
(§2) Plasmids (pSP or pCI_NEO) harboring rat GluN1 or GluN2 full-length subunits were linearized by restriction digestion and transcribed according to the manufacturer’s instructions (mMESSAGE mMachine SP6 or T7 kit, ThermoFisher Scientific). Recombinant rat GluN1-4a and GluN2 were expressed by co-injecting cRNA at a 1:2 (w/w) ratio into defolliculated X. laevis oocytes (amounts varied from 0.05–25 ng per oocyte). Two-electrode voltage-clamp recordings were performed 1–3 days after injection using agarose-tipped microelectrodes (0.4–1.2 MΩ) filled with 3 M KCl at a holding potential of −60 mV. The bath solution contained 5 mM HEPES, 100 mM NaCl, 0.3 mM BaCl2, 10 mM Tricine, at pH 7.4 (adjusted with KOH). […] For the statistical evaluation, we implemented pairwise F-tests to test variances, and then performed the Student t test with equal or unequal variances as determined previously, and accounted for multiple testing with the Bonferroni correction.

Assay [2] deals with T2, GluN1-4a/GluN2B NMDARs (Rattus norvegicus, UniProt Q00960).
T2 construct: expressed in transfected cells; host or cells: Xenopus laevis oocytes injected with cRNA
T2 sequence (Q00960 27-1482, other chains not shown): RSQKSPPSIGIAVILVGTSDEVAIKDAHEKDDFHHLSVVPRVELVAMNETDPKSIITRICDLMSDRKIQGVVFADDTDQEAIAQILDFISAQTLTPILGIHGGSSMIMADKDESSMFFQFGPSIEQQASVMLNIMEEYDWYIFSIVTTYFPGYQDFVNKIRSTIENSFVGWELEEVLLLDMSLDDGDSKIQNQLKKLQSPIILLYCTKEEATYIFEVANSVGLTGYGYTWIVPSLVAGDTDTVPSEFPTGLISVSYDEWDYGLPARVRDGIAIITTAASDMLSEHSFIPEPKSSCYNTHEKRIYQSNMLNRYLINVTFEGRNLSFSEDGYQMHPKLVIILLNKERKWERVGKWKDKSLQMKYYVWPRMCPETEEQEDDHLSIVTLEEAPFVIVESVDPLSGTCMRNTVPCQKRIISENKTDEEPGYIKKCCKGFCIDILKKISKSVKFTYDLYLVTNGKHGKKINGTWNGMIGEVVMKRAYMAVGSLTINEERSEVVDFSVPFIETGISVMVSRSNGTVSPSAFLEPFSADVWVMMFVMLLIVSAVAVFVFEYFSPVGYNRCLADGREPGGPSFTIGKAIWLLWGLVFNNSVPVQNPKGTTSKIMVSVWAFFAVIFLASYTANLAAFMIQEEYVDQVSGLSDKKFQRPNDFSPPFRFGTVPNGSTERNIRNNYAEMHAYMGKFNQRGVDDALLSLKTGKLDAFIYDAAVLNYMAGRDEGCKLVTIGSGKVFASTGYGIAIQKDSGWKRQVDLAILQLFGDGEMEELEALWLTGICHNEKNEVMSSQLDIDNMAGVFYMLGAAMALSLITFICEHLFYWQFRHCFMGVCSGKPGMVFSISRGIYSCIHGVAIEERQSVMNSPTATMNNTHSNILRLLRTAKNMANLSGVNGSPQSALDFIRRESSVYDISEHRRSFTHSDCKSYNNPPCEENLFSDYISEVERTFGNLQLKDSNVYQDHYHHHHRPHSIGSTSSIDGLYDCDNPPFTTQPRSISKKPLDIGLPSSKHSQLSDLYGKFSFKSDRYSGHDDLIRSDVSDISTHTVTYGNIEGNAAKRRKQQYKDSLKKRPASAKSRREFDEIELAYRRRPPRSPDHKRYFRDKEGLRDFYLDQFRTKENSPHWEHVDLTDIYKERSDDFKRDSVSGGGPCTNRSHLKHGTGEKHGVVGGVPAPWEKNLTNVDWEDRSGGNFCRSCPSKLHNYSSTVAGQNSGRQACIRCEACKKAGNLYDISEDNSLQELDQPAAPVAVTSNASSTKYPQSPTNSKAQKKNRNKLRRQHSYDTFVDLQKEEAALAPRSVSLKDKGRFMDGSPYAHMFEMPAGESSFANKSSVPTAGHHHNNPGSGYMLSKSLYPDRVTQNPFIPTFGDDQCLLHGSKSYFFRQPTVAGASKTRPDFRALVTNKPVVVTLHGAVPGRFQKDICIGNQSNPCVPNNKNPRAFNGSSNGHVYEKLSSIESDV
The assay is described as above. Particulars: for fold difference of Ki vs. 2D (GluN2B): Ki GluN2B relative to Ki GluN2D (WT).
Description: as §1, §2

The target of assay [3] is T3, GluN1-4a/GluN2A-4m NMDAR (Ala414Arg, Lys738Met, Gly740Arg, Arg741Lys) (Rattus norvegicus, UniProt P35439+Q00959, A414R/G740R/K738M/R741K).
T3 construct: we incorporated the mutations, Ala414Arg, Lys738Met, Gly740Arg, and Arg741Lys, in the full-length GluN2A (GluN2A-4m); expressed in transfected cells; host or cells: Xenopus laevis oocytes injected with cRNA
T3 sequence (Q00959 23-1464 A414R/K738M/G740R/R741K, other chains not shown): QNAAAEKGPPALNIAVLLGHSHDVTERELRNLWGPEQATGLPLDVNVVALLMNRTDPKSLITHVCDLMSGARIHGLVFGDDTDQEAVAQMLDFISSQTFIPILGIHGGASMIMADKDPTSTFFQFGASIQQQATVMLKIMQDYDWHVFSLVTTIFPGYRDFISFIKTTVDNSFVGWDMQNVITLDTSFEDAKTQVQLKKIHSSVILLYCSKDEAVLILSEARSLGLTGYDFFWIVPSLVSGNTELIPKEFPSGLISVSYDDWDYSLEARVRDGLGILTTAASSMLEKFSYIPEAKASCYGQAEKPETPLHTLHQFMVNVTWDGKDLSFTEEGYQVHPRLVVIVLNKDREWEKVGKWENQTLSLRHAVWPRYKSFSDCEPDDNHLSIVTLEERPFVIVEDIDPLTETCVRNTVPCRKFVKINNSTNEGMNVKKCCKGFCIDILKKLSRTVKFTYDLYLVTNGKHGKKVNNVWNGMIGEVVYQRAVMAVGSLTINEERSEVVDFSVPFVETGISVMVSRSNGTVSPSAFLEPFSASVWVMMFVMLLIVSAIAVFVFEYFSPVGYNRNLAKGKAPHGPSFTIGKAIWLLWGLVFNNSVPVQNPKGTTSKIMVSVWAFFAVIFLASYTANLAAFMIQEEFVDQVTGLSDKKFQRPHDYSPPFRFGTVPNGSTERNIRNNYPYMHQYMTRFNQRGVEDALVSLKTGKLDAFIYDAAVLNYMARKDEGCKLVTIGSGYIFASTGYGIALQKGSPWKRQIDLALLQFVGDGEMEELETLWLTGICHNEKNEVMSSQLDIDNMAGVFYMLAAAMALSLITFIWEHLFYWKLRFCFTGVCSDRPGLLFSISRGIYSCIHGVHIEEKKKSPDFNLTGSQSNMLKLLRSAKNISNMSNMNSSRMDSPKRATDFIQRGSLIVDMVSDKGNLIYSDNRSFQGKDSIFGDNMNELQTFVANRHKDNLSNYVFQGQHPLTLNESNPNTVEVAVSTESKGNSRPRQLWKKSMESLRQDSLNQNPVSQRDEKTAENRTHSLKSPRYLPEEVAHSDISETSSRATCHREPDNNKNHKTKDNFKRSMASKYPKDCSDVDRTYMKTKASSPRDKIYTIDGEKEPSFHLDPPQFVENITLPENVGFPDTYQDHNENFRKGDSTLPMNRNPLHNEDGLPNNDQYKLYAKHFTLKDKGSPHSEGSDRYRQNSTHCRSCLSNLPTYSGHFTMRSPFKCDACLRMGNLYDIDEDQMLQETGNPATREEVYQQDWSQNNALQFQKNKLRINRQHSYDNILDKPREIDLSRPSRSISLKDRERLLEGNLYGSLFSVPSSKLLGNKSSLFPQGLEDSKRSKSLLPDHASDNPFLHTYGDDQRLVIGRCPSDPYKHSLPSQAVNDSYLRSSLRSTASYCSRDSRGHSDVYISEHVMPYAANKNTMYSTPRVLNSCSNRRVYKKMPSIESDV
Description: TEVC electrophysiology on oocytes expressing GluN1-4a/GluN2A-4m mutant.
Description: Our previous structure of the GluN1–GluN2A LBD complexed to PPDA unambiguously mapped the antagonist-binding site at the cleft of the bilobe architecture of the GluN2 LBD (PDB: 4NF6). […] In this study, we focus on the comparison between the GluN2A and GluN2D subunits, since sequence and functional similarities between GluN2A and GluN2B and between GluN2C and GluN2D are high. Near the PPDA-binding pocket in the GluN2A LBD (Fig. 3a), the primary sequences across the GluN2A-D subunits are mostly identical except for four residues, GluN2A-Ala414, Lys738, Gly740, and Arg741, which are Arg, Met, Arg, and Lys residues in GluN2D, respectively (Fig. 3a; yellow residues and arrows in the sequence alignment). GluN2A-Ala414 is located in the D1-lobe, whereas GluN2A-Lys738, Gly740, and Arg741 are on Helix H in the D2-lobe proximal to the predicted binding site for the carboxyethyl group of UBP791. These residues are completely conserved among human, rat, and chicken, though GluN2A-Ala414 and -Lys738 are not conserved in X. laevis (frog) and Danio rerio (zebrafish) (Supplementary Fig. 1).
as §2

A further assay deals with human GluK1 (Homo sapiens, UniProt P39086). Description: Glutamate-stimulated Ca2+-influx fluorescence assay in HEK293 cells, GluK1. Here is the method:
Supplementary Figure 5. Effect of antagonist compounds on GluK1.
Averaged dose-response curves (average ± standard error of the mean) for inhibition with a […]
glutamate-stimulated Ca2+-influx assay from 3 or 4 measurements (n). IC50, Ki, and Hill coefficient nH (mean ± standard error of the mean) calculated with the Cheng-Prusoff equation were determined per measurement and are as shown. […]
HEK293 cell lines stably expressing homomeric glutamate receptors (GluA1, GluK1 and GluK2) were obtained from Eli Lilly and grown in DMEM (ThermoFisher) supplemented with 10% v/v fetal bovine serum (Sigma), 2 mM Glutamax™ (Gibco), 100 U/mL penicillin, 100 µg streptomycin and 250 ng amphotericin B (Sigma) in 5% CO2 at 37 °C. […]
Calcium influx fluorescence assay
100k cells/well were seeded into a 96-well plate precoated with poly-L-lysine and incubated for 12-16 hours until fully confluent. […] The time resolved fluorescence was recorded in a Flexstation 3 instrument (Molecular Devices). For each individual reading, the initial fluorescence of the well was measured for 20 seconds, after which the desired concentration of […]
response is measured as the peak change in fluorescence upon addition of agonist. […] Readings of antagonists used the […]
Fluorescence traces were performed in […]
triplicate on each plate and Ki values were determined on a plate-by-plate basis. […]

Several values for one entry are separate records, joined by “and”; a condition that tells them apart may be missing. Equal values may be shown once.

Chain of human GluK1 (P39086 31-918): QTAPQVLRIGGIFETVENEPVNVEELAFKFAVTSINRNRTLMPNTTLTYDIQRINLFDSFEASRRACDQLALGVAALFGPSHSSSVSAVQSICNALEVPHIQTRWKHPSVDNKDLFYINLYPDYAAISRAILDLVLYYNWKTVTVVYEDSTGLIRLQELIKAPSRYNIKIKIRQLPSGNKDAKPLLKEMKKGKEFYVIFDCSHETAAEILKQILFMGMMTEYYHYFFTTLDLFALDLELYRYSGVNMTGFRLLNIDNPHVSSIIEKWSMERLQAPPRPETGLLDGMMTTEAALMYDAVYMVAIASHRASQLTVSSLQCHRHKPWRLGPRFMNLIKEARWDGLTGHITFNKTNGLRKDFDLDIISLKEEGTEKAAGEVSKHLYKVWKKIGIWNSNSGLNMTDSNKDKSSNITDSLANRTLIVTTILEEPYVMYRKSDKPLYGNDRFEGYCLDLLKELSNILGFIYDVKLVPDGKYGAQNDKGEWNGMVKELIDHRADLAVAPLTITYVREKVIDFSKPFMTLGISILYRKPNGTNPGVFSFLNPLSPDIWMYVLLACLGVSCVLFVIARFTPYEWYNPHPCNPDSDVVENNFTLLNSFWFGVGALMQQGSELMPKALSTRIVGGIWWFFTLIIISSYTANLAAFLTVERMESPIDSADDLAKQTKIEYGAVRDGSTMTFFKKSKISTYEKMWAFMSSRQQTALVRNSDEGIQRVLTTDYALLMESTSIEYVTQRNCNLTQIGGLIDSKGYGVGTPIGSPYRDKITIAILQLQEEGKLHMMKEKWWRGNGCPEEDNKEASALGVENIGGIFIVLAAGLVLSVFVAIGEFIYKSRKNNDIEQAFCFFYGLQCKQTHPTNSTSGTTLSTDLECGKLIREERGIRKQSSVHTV

As a reminder, the Ki is a measure of affinity in units of concentration, obtained from inhibition or displacement. Low values mean higher affinity, high ones lower affinity. Consider `O=C(O)CCc1ccc2c(ccc3cc(C(=O)N4CCN[C@@H](C(=O)O)[C@H]4C(=O)O)ccc32)c1` (relative stereo) [UBP791, (2S*,3R*)-1-(7-(2-carboxyethyl)phenanthrene-2-carbonyl)piperazine-2,3-dicarboxylic acid], for which the Ki at GluN1-4a/GluN2B NMDARs [1] is 1.38 ± 0.36 µM; in assay [3], 0.71 ± 0.14 µM; at human GluK1, ~100 µM. Moreover, the “fold difference of Ki vs. 2D (GluN2B)” value on GluN1-4a/GluN2B NMDARs [2] is given as ~ 16 fold. Also, at GluN1-4a/GluN2B NMDARs [2] (ratio of Ki values), the “GluN2C/2D-selectivity over GluN2B” value is recorded as 16 fold.

For `O=C(O)C=Cc1ccc2c(ccc3cc(C(=O)N4CCN[C@@H](C(=O)O)[C@H]4C(=O)O)ccc32)c1` (relative stereo) [UBP1700, (2S*,3R*)-1-(7-(2-carboxyvinyl)phenanthrene-2-carbonyl)piperazine-2,3-dicarboxylic acid], the Ki on GluN1-4a/GluN2B NMDARs [1] was 0.35 ± 0.05 µM; in assay [3] it was 0.05 µM; at human GluK1, ~32 µM. The “fold difference of Ki vs. 2D (GluN2B)” value at GluN1-4a/GluN2B NMDARs [2] is ~ 52 fold and 52 fold. Besides, the “selectivity for GluN2C over GluN2B” value at GluN1-4a/GluN2B NMDARs [2] (ratio of Ki values) stood at 40 fold.
